Reference: patent US20260198498A1, “FUNGICIDAL COMPOSITIONS” (SYNGENTA CROP PROTECTION AG, priority 2022, published 2026)

What was measured:
[1] = tested on: Mycosphaerella arachidis (Cercospora arachidicola); assay: Example B13: Mycosphaerella arachidis (Cercospora arachidicola)/Liquid Culture (Early Leaf Spot); assay type: cell-based; settings: liquid culture, photometrically 4 to 5 days after application, read-out: control of Mycosphaerella arachidis
Description: Example B13: Mycosphaerella arachidis (Cercospora arachidicola)/Liquid Culture (Early Leaf Spot)
(§1) Conidia of the fungus from cryogenic storage are directly mixed into nutrient broth (PDB potato dextrose broth). After placing a (DMSO) solution of test compound into a microtiter plate (96-well format), the nutrient broth containing the fungal spores is added. The test plates are incubated at 24° C. and the inhibition of growth is determined photometrically 4 to 5 days after application.

[2] = tested on: Glomerella lagenarium (Colletotrichum lagenarium); assay: Example B5: Glomerella lagenarium (Colletotrichum lagenarium)/Liquid Culture (Anthracnose); assay type: cell-based; settings: Colletotrichum orbiculare, liquid culture, photometrically 3 to 4 days after application, read-out: control of Glomerella lagenarium
Description: Example B5: Glomerella lagenarium (Colletotrichum lagenarium)/Liquid Culture (Anthracnose)
as §1, with “measured” for “determined”, “photometrically 3 to” for “photometrically”, “4” for “4 to 5”

[3] = tested on: Botryotinia fuckeliana (Botrytis cinerea); assay: Example B2: Botryotinia fuckeliana (Botrytis cinerea)/Liquid Culture (Gray Mould); assay type: cell-based; settings: liquid culture, growth inhibition photometrically 3 to 4 days after application, read-out: control of Botryotinia fuckeliana
Description: Example B2: Botryotinia fuceliana (Botrytis cinerea)/Liquid Culture (Gray Mould)
as §1, with “(Vogels” for “(PDB potato dextrose”, “photometrically 3 to” for “photometrically”, “4” for “4 to 5”

[4] = tested on: Monographella nivalis (Microdochium nivale); assay: Example B12: Monographella nivalis (Microdochium nivale)/Liquid Culture (Foot Rot Cereals); assay type: cell-based; settings: liquid culture, photometrically 4 to 5 days after application, read-out: control of Monographella nivalis
Description: Example B12: Monographella nivalis (Microdochium nivale)/Liquid Culture (Foot Rot Cereals)
as §1

[5] = tested on: Mycosphaerella graminicola (Septoria tritici); assay: Example B21: Mycosphaerella graminicola (Septoria tritici)/Liquid Culture (Septoria Blotch); assay type: cell-based; settings: Zymoseptoria tritici, liquid culture, photometrically 4-5 days after application, read-out: control of Mycosphaerella graminicola
Description: Example B21: Mycosphaerella graminicola (Septoria tritici)/Liquid Culture (Septoria Blotch)
as §1, with “4-5” for “4 to 5”

Pyrenophora teres = assay: Example B18: Pyrenophora teres/Barley/Leaf Disc Preventative (Net Blotch); assay type: in vivo; settings: foliar, barley leaf segments, inoculated 2 days after application
Description: Example B18: Pyrenophora teres/Barley/Leaf Disc Preventative (Net Blotch)
Barley leaf segments cv. Hasso are placed on agar in a multiwell plate (24-well format) and sprayed with the formulated test compound diluted in water. The leaf segments are inoculated with a spore suspension of the fungus 2 days after application. The inoculated leaf segments are incubated at 20° C. and 65% rh under a light regime of 12 h light/12 h darkness in a climate cabinet and the activity of a compound is assessed as disease control compared to untreated when an appropriate level of disease damage appears in untreated check leaf segments (5-7 days after application).

[6] = tested on: Phaeosphaeria nodorum (Septoria nodorum); assay: Example B11: Phaeosphaeria nodorum (Septoria nodorum)/Wheat/Leaf Disc Preventative (Glume Blotch); assay type: in vivo; settings: Parastagonospora nodorum, foliar, wheat leaf segments, inoculated 2 days after application
Description: Example B11: Phaeosphaeria nodorum (Septoria nodorum)/Wheat/Leaf Disc Preventative (Glume Blotch)
Wheat leaf segments cv. Kanzler are placed on agar in a multiwell plate (24-well format) and sprayed with the formulated test compound diluted in water. The leaf disks are inoculated with a spore suspension of the fungus 2 days after application. The inoculated test leaf disks are incubated at 20° C. and 75% rh under a light regime of 12 h light/12 h darkness in a climate cabinet and the activity of a compound is assessed as percent disease control compared to untreated when an appropriate level of disease damage appears in untreated check leaf disks (5-7 days after application).

Cn1cc(C2CN(C(=O)c3nnc(-c4ccccc4)o3)Cc3ccccc32)cn1 (centres unmarked) [X.19, [4-(1-methylpyrazol-4-yl)-3,4-dihydro-1H-isoquinolin-2-yl]-(5-phenyl-1,3,4-oxadiazol-2-yl)methanone]
≥ 80%: inhibition of growth at 20 ppm [1] | inhibition of growth at 20 ppm [2] | inhibition of growth at 20 ppm [3] | inhibition of growth at 20 ppm [4] | inhibition of growth at 20 ppm [5]

Cn1cc(C2(C)CN(C(=O)c3cc(-c4ccc(F)cc4F)on3)Cc3ccccc32)cn1 (centres unmarked) [X.14, [5-(2,4-difluorophenyl)isoxazol-3-yl]-[4-methyl-4-(1-methylpyrazol-4-yl)-1,3-dihydroisoquinolin-2-yl]methanone]
≥ 80%: pest or weed control at 200 ppm (Pyrenophora teres) | inhibition of growth at 20 ppm [1] | inhibition of growth at 20 ppm [2] | inhibition of growth at 20 ppm [3] | pest or weed control at 200 ppm [6] | inhibition of growth at 20 ppm [4] | inhibition of growth at 20 ppm [5]

Cn1cc([C@]2(C)CN(C(=O)c3nnc(-c4ccc(F)cc4F)s3)Cc3ccccc32)cn1 [X.06, [5-(2,4-difluorophenyl)-1,3,4-thiadiazol-2-yl]-[(4R)-4-methyl-4-(1-methylpyrazol-4-yl)-1,3-dihydroisoquinolin-2-yl]methanone]
≥ 80%: pest or weed control at 200 ppm (Pyrenophora teres) | inhibition of growth at 20 ppm [1] | inhibition of growth at 20 ppm [2] | inhibition of growth at 20 ppm [3] | pest or weed control at 200 ppm [6] | inhibition of growth at 20 ppm [4] | inhibition of growth at 20 ppm [5]

Cn1cc(C2CN(C(=O)c3cc(C4CCCCC4)no3)Cc3ccccc32)cn1 (centres unmarked) [X.18, (3-cyclohexylisoxazol-5-yl)-[4-(1-methylpyrazol-4-yl)-3,4-dihydro-1H-isoquinolin-2-yl]methanone]
≥ 80%: inhibition of growth at 20 ppm [1] | inhibition of growth at 20 ppm [2] | inhibition of growth at 20 ppm [4] | inhibition of growth at 20 ppm [5]

Cc1nn(C)c(C)c1C1CN(C(=O)c2cc(-c3ccc(F)cc3F)on2)Cc2ncccc21 (centres unmarked) [X.15, [5-(2,4-difluorophenyl)isoxazol-3-yl]-[5-(1,3,5-trimethylpyrazol-4-yl)-6,8-dihydro-5H-1,7-naphthyridin-7-yl]methanone]
≥ 80%: pest or weed control at 200 ppm (Pyrenophora teres) | inhibition of growth at 20 ppm [1] | inhibition of growth at 20 ppm [2] | inhibition of growth at 20 ppm [4] | inhibition of growth at 20 ppm [5]

Cc1c(C2CN(C(=O)c3nnc(C4CCCCC4)s3)Cc3ccccc32)cnn1C (centres unmarked) [X.04, (5-cyclohexyl-1,3,4-thiadiazol-2-yl)-[4-(1,5-dimethylpyrazol-4-yl)-3,4-dihydro-1H-isoquinolin-2-yl]methanone]
≥ 80%: inhibition of growth at 20 ppm [1] | inhibition of growth at 20 ppm [2] | inhibition of growth at 20 ppm [4] | inhibition of growth at 20 ppm [5]

COc1ccc2c(c1)[C@@H](c1cnn(C)c1)CN(C(=O)c1cc(-c3ccc(F)cc3F)on1)[C@H]2C [X.05, [5-(2,4-difluorophenyl)isoxazol-3-yl]-[(1S,4S)-6-methoxy-1-methyl-4-(1-methylpyrazol-4-yl)-3,4-dihydro-1H-isoquinolin-2-yl]methanone]
≥ 80%: inhibition of growth at 20 ppm [1] | inhibition of growth at 20 ppm [3] | inhibition of growth at 20 ppm [4] | inhibition of growth at 20 ppm [5]

Cn1ncc(C2CN(C(=O)c3cc(-c4ccc(F)cc4F)on3)Cc3ccccc32)c1F (centres unmarked) [X.12, [5-(2,4-difluorophenyl)isoxazol-3-yl]-[4-(5-fluoro-1-methyl-pyrazol-4-yl)-3,4-dihydro-1H-isoquinolin-2-yl]methanone]
≥ 80%: pest or weed control at 200 ppm (Pyrenophora teres) | inhibition of growth at 20 ppm [1] | inhibition of growth at 20 ppm [2] | inhibition of growth at 20 ppm [3] | pest or weed control at 200 ppm [6] | inhibition of growth at 20 ppm [4] | inhibition of growth at 20 ppm [5]

Cn1cc(C2CN(C(=O)c3cc(-c4ccncc4)on3)Cc3ccccc32)cn1 (centres unmarked) [X.23, [4-(1-methylpyrazol-4-yl)-3,4-dihydro-1H-isoquinolin-2-yl]-[5-(4-pyridyl)isoxazol-3-yl]methanone]
≥ 80%: inhibition of growth at 20 ppm [5]

Cn1cc(C2CN(C(=O)c3nnc(-c4ccc(F)cc4)o3)Cc3ccccc32)cn1 (centres unmarked) [X.10, [5-(4-fluorophenyl)-1,3,4-oxadiazol-2-yl]-[4-(1-methylpyrazol-4-yl)-3,4-dihydro-1H-isoquinolin-2-yl]methanone]
≥ 80%: pest or weed control at 200 ppm (Pyrenophora teres) | inhibition of growth at 20 ppm [2] | pest or weed control at 200 ppm [6] | inhibition of growth at 20 ppm [4] | inhibition of growth at 20 ppm [5]

Cn1ncc(C2CN(C(=O)c3cc(-c4ccc(F)cc4F)on3)Cc3ccccc32)c1Cl (centres unmarked) [X.11, [4-(5-chloro-1-methyl-pyrazol-4-yl)-3,4-dihydro-1H-isoquinolin-2-yl]-[5-(2,4-difluorophenyl)isoxazol-3-yl]methanone]
≥ 80%: pest or weed control at 200 ppm (Pyrenophora teres) | inhibition of growth at 20 ppm [1] | inhibition of growth at 20 ppm [2] | inhibition of growth at 20 ppm [3] | pest or weed control at 200 ppm [6] | inhibition of growth at 20 ppm [4] | inhibition of growth at 20 ppm [5]

CC(=O)c1c(C2CN(C(=O)c3cc(-c4ccc(F)cc4F)on3)Cc3ccccc32)cnn1C (centres unmarked) [X.08, 1-[4-[2-[5-(2,4-difluorophenyl)isoxazole-3-carbonyl]-3,4-dihydro-1H-isoquinolin-4-yl]-2-methyl-pyrazol-3-yl]ethanone]
≥ 80%: pest or weed control at 200 ppm (Pyrenophora teres) | inhibition of growth at 20 ppm [1] | inhibition of growth at 20 ppm [2] | inhibition of growth at 20 ppm [4] | inhibition of growth at 20 ppm [5]

Cc1c(C2CN(C(=O)c3nnc(-c4ncc(F)cc4F)s3)Cc3ccccc32)cnn1C (centres unmarked) [X.28, [5-(3,5-difluoro-2-pyridyl)-1,3,4-thiadiazol-2-yl]-[4-(1,5-dimethylpyrazol-4-yl)-3,4-dihydro-1H-isoquinolin-2-yl]methanone]
≥ 80%: pest or weed control at 200 ppm (Pyrenophora teres) | inhibition of growth at 20 ppm [1] | inhibition of growth at 20 ppm [2] | pest or weed control at 200 ppm [6] | inhibition of growth at 20 ppm [5]

Cn1cc(C2(C)CN(C(=O)c3nnc(-c4ccc(F)cc4F)s3)Cc3ccccc32)cn1 (centres unmarked) [X.07, [5-(2,4-difluorophenyl)-1,3,4-thiadiazol-2-yl]-[4-methyl-4-(1-methylpyrazol-4-yl)-1,3-dihydroisoquinolin-2-yl]methanone]
≥ 80%: inhibition of growth at 20 ppm [1] | inhibition of growth at 20 ppm [2] | inhibition of growth at 20 ppm [3] | inhibition of growth at 20 ppm [4] | inhibition of growth at 20 ppm [5]

CCCc1nnc(C(=O)N2Cc3ccccc3C(c3cnn(C)c3C)C2)s1 (centres unmarked) [X.03, [4-(1,5-dimethylpyrazol-4-yl)-3,4-dihydro-1H-isoquinolin-2-yl]-(5-propyl-1,3,4-thiadiazol-2-yl)methanone]
≥ 80%: inhibition of growth at 20 ppm [1] | inhibition of growth at 20 ppm [2] | inhibition of growth at 20 ppm [5]

COC(=O)C1c2ccccc2C(c2cnn(C)c2)CN1C(=O)c1cc(-c2ccc(F)cc2F)on1 (centres unmarked) [X.09, methyl 2-[5-(2,4-difluorophenyl)isoxazole-3-carbonyl]-4-(1-methylpyrazol-4-yl)-3,4-dihydro-1H-isoquinoline-1-carboxylate]
≥ 80%: inhibition of growth at 20 ppm [1] | inhibition of growth at 20 ppm [3] | pest or weed control at 200 ppm [6] | inhibition of growth at 20 ppm [4] | inhibition of growth at 20 ppm [5]

Cc1c(C2CN(C(=O)c3nnc(-c4ccc(F)cc4F)o3)Cc3ccccc32)cnn1C (centres unmarked) [X.01, [5-(2,4-difluorophenyl)-1,3,4-oxadiazol-2-yl]-[4-(1,5-dimethylpyrazol-4-yl)-3,4-dihydro-1H-isoquinolin-2-yl]methanone]
≥ 80%: pest or weed control at 200 ppm (Pyrenophora teres) | inhibition of growth at 20 ppm [2] | inhibition of growth at 20 ppm [4] | inhibition of growth at 20 ppm [5]
